These are literature values, as cited in article PMC12337022, “Randomized, Double-Blind, Crossover Study Comparing the Bioavailability of 4 Ashwagandha (Withania somnifera (L.) Dunal) Extracts in Healthy Adults Under Fasting Condition” (Current Therapeutic Research, Clinical and Experimental, 2025).

For series [1], the system named is Madin-Darby canine kidney cells.
On the set-up of series [2]: method as in Dai et al 20. The note with it: rat and human liver microsomes; ref Dai et al 20. On the technique in general: Microsomes from liver hold many membrane-bound enzymes, among them those of drug oxidation.
Details of series [3]: method as in Singh et al 25. Particulars: Sprague-Dawley rats, orally at 25 mg/kg and intravenously at 2 mg/kg; ref Singh et al 25.
On the set-up of series [4]: method as in Pires et al 27. The note with it: Phase I dose-escalation, 13 participants, highest dose level tested, HPLC sensitivity 50 ng/mL; ref Pires et al 27.
[5] abbreviates: Madin-Darby canine kidney cells, in vitro.

Like-named read-outs stand apart in the source and are kept apart here.

For `CC1=C(C)C(=O)O[C@@H]([C@@H](C)[C@@]2(O)CC[C@H]3[C@@H]4[C@@H]5O[C@@H]5[C@@]5(O)CC=CC(=O)[C@]5(C)[C@H]4CC[C@@]32C)C1` [withanone], the permeability result in series [1] (setting [5]) is “highly permeable”.
With `CC1=C(C)C(=O)O[C@@H]([C@@H](C)[C@H]2CC[C@H]3[C@@H]4[C@@H]5O[C@@H]5[C@@]5(O)CC=CC(=O)[C@]5(C)[C@H]4CC[C@]23C)C1` [withanolide B], the permeability entry in series [1] (MDCK) is “highly permeable”.
For `CC1=C(C)C(=O)O[C@@H]([C@](C)(O)[C@H]2CC[C@H]3[C@@H]4[C@@H]5O[C@@H]5[C@@]5(O)CC=CC(=O)[C@]5(C)[C@H]4CC[C@]23C)C1` [withanolide A], the permeability entry in series [1] (MDCK) was “highly permeable”.
For the compound `CC1=C(C)C(=O)O[C@@H]([C@@H](C)[C@H]2CC[C@H]3[C@@H]4CC=C5C[C@@H](O[C@@H]6O[C@H](CO[C@@H]7O[C@H](CO)[C@@H](O)[C@H](O)[C@H]7O)[C@@H](O)[C@H](O)[C@H]6O)C[C@H](O)[C@]5(C)[C@H]4CC[C@]23C)C1` [withanoside V], the permeability entry in series [1] (MDCK) was “low permeability”.
In the case of 1,2-deoxy-withastramonolide, in series [1] (setting [5]), the permeability result is recorded as “highly permeable”.
Take `CC1=C(CO)C(=O)O[C@@H]([C@@H](C)[C@H]2CC[C@H]3[C@@H]4C[C@H]5O[C@]56[C@@H](O)C=CC(=O)[C@]6(C)[C@H]4CC[C@]23C)C1` [withaferin A]: the half-life in series [2] was 5.6 min. Besides, the oral bioavailability entry in series [3] is reported as “about 5%”. Further, in series [4], the detectability in plasma result was “not detectable”. In addition, the permeability entry in series [1] (setting [5]) is given as “low permeability”.
As to `CC1=C(CO)C(=O)O[C@@H]([C@@H](C)[C@H]2CC[C@H]3[C@@H]4CC=C5C[C@@H](O[C@@H]6O[C@H](CO[C@@H]7O[C@H](CO)[C@@H](O)[C@H](O)[C@H]7O)[C@@H](O)[C@H](O)[C@H]6O)C[C@H](O)[C@]5(C)[C@H]4CC[C@]23C)C1` [withanoside IV], in series [1] (MDCK), the permeability result is “low permeability”.

As a reminder, the half-life is the time in which the quantity being followed falls by half.
